Source: patent publication US6831190B1, “Guanidinomethyl cyclohexane carboxylic acid ester derivatives” (Teikoku Chemical Industries Co., Ltd., priority 1994, dated 2004)
Values after ≈ are worked out from the molar mass of the structure shown. Read-outs that look alike come from different tables or passages of the source.

Columns and labels:
Assay type in all cases: cell-based
[1] = tested on: Helicobacter pylori No. 2; test: MIC and MBC, liquid medium dilution; details: Objected Strain 5: Helicobacter pylori No. 2
Method: (§1) 2. Minimum Inhibitory Concentration (MIC) and Minimum Bacteria sterilizeory Concentration (MBC) against helicobacter pylon were measured in accordance with the liquid medium dilution. […] And […] of helicobacter pylon bacterial solution, which was cultured at 37° C. for three days and then diluted and prepared with the above mentioned liquid medium, was added to the mixtures to adjust the volume to 105 CFU/ml. […] After they were cultured by the same method as above mentioned, minimum concentration of the compounds which were not recognized the growth with the naked eyes were measured as the values of MBC.

[2] = tested on: Helicobacter pylori ATCC 43629; test: MIC and MBC, liquid medium dilution; details: Objected Strain 2: Helicobacter pylori ATCC 43629
Method: as §1

[3] = tested on: Helicobacter pylori No. 3; test: MIC and MBC, liquid medium dilution; details: Objected Strain 6: Helicobacter pylori No. 3
Method: as §1

[4] = tested on: Helicobacter pylori No. 4; test: MIC and MBC, liquid medium dilution; details: Objected Strain 7: Helicobacter pylori No. 4
Method: as §1

[5] = tested on: Helicobacter pylori ATCC 43504; test: MIC and MBC, liquid medium dilution; details: Objected Strain 1: Helicobacter pylori ATCC 43504
Method: as §1

[6] = tested on: Helicobacter pylori No. 1; test: MIC and MBC, liquid medium dilution; details: Objected Strain 4: Helicobacter pylori No. 1
Method: as §1

[7] = tested on: Helicobacter pylori ATCC 43629; test: MIC, agar plating dilution (standard method of Japanese Chemotherapy Academy)
Summary of the method: (§2)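 Agar dilution MIC followed the Japanese Chemotherapy Academy standard method, on Brain Heart Infusion agar with 0.1% cyclodextrin and compounds dissolved in DMSO. Plates were incubated microaerobically at 37 °C for three days.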

[8] = tested on: Helicobacter pylori ATCC 43504; test: as above
Summary of the method: as §2

[9] = tested on: Helicobacter pylori No. 2; test: MIC, agar plating dilution, clinical segregation strain
Method: (§3) Minimum Inhibitory Concentration (MIC) was measured in accordance with the standard method of Japanese Chemotherapy Academy (Chemotherapy, 29: 76-79, 1981). Sensitivity was measured with an agar plating dilution using Brain-Heart Infusion agar (Difco Co.) which was added 0.1% of cyclodextrin. […] of the solutions of the compounds which were obtained in examples of the present invention was prepared by dissolving in dimethylsulfoxide. […] Each of 1 ml of those prepared solutions was dispensed in share, after sterilization, 9 ml of sensitivity measuring medium which is kept at 50° C. was added to each, and they were sufficiently mixed. The mixture was used as a plate for measuring sensitivity. Brain Heart Infusion agar medium (Difco Co.), which was added 0.1% of cyclodextrin, was used as bacteria growing medium, and was cultured under microair at 37° C. for three days, and the number of bacteria thereof was adjusted to about 106/ml. This was used as a bacterial solution for inoculation. The medium was painted in each square about 2 cm with nichromic line loop. The medium was cultured under microair for three days at 37° C. […] The each result is shown at Table 4.

[10] = tested on: Helicobacter pylori No. 3; test: as above
Method: as §3

[11] = tested on: Helicobacter pylori No. 4; test: as above
Method: as §3

[12] = tested on: Helicobacter pylori No. 1; test: as above
Method: as §3

[13] = tested on: Bacillus subtilis ATCC 6633; test: MIC, standard method of Japanese Chemotherapy Academy; details: for MIC against bacillus subcillus ATCC 6633: standard method of Japanese Chemotherapy Academy; for MIC: Strain 13: Bacillus subtilis ATCC 6633
Method: (§4) 1. Minimum Inhibitory Concentration (MIC) was measured in accordance with the standard method of Japanese Chemotherapy Academy (Chemotherapy, 29: 76-79, 1981).
(§5) And MIC of the compounds of Example 3, 36, 8, 14, 17, 21, 41 and 45 were measured.

[14] = tested on: Escherichia coli NIH JC-2; test: as above; details: Objected Strain 3: Escherichia coli NIH JC-2
Method: as §4

[15] = tested on: Helicobacter pylori No. 20; test: MIC, agar plating dilution, clinical segregation strain
Method: as §3

[16] = tested on: Helicobacter pylori No. 28; test: as above
Method: as §3

[17] = tested on: Helicobacter pylori No. 19; test: as above
Method: as §3

[18] = tested on: Staphylococcus aureus 209PJC; test: MIC, standard method of Japanese Chemotherapy Academy; details: Strain 11: Staphylococcus aureus 209PJC
Method: as §4, §5

[19] = tested on: Staphylococcus aureus No. 2 (MRSA); test: as above; details: Strain 14: Staphylococcus aureus No. 2 (MRSA)
Method: as §4, §5

[20] = tested on: Staphylococcus aureus ATCC 6538; test: as above; details: Strain 12: Staphylococcus aureus ATCC 6538
Method: as §4, §5

[21] = Objected Strain 2: Helicobacter pylori ATCC 43629
[22] = Objected Strain 1: Helicobacter pylori ATCC 43504
[23] = Strain 5: Helicobacter pylori No. 2
[24] = Strain 6: Helicobacter pylori No. 3
[25] = Strain 7: Helicobacter pylori No. 4
[26] = Strain 4: Helicobacter pylori No. 1
[27] = Strain 9: Helicobacter pylori No. 20
[28] = Strain 10: Helicobacter pylori No. 28
[29] = Strain 8: Helicobacter pylori No. 19

SMILES | MIC [7, 21] [µg/mL] | MIC [8, 22] [µg/mL] | MIC [9, 23] [µg/mL] | MIC [10, 24] [µg/mL] | MIC [11, 25] [µg/mL] | MIC [12, 26] [µg/mL] | MIC against bacillus subcillus ATCC 6633 [13] [µg/mL] | MIC [14] [µg/mL] | MIC [18] [µg/mL] | MIC [13] [µg/mL] | MIC [19] [µg/mL] | MIC [20] [µg/mL] | MIC [15, 27] [µg/mL] | MIC [16, 28] [µg/mL] | MIC [17, 29] [µg/mL] | other results
Cl.N=C(N)NC[C@H]1CC[C@H](C(=O)Oc2ccc(-c3ccc(C(=O)OCc4ccc(F)cc4)cc3)cc2)CC1 [Example 16, trans-4-guanidinomethyl cyclohexane carboxylic acid [4-[4-(4-fluorobenzyloxycarbonyl)phenyl]phenylester].hydrochloride] | 0.78 | 0.78 | 0.78 | 0.20 | 0.39 | 0.20 | > 25 | >25 | – | – | – | – | – | – | – | MBC [1]: 3.13 µg/mL; MIC [1]: 0.78 µg/mL; MBC [2]: 1.56 µg/mL; MIC [2]: 0.39 µg/mL; MBC [3]: 0.10 µg/mL; MIC [3]: 0.05 µg/mL; MBC [4]: 0.39 µg/mL; MIC [4]: 0.10 µg/mL; MBC [5]: 0.39 µg/mL; MIC [5]: 0.20 µg/mL; MBC [6]: 0.78 µg/mL; MIC [6]: 0.20 µg/mL
CC1(C)S[C@@H]2[C@H](NC(=O)[C@H](N)c3ccc(O)cc3)C(=O)N2[C@H]1C(=O)O [Amoxicillin, amoxicillin, reference compound] | – | – | – | – | – | – | – | – | – | – | – | – | – | – | – | MIC ([7]; ATCC43629, Objected Strain 2: Helicobacter pylori ATCC 43629, read-out: MIC): 0.025 µg/mL (≈ 0.0684 µM); MIC ([8]; ATCC43504, Objected Strain 1: Helicobacter pylori ATCC 43504, read-out: MIC): 0.05 µg/mL (≈ 0.137 µM); MIC ([15]; Strain 9: Helicobacter pylori No. 20, read-out: MIC): 0.025 µg/mL (≈ 0.0684 µM); MIC ([9]; Strain 5: Helicobacter pylori No. 2, read-out: MIC): 0.1 µg/mL (≈ 0.274 µM); MIC ([16]; Strain 10: Helicobacter pylori No. 28, read-out: MIC): 0.05 µg/mL (≈ 0.137 µM); MIC ([10]; Strain 6: Helicobacter pylori No. 3, read-out: MIC): 0.025 µg/mL (≈ 0.0684 µM); MIC ([11]; Strain 7: Helicobacter pylori No. 4, read-out: MIC): 0.05 µg/mL (≈ 0.137 µM); MIC ([17]; Strain 8: Helicobacter pylori No. 19, read-out: MIC): 0.025 µg/mL (≈ 0.0684 µM); MIC ([12]; Strain 4: Helicobacter pylori No. 1, read-out: MIC): 0.1 µg/mL (≈ 0.274 µM); MIC ([18]; read-out: MIC): 0.1 µg/mL (≈ 0.274 µM); MIC ([13]; ATCC6633, read-out: MIC): 0.05 µg/mL (≈ 0.137 µM); MIC ([19]; read-out: MIC): 0.2 µg/mL (≈ 0.547 µM); MIC ([20]; ATCC6538, read-out: MIC): 0.05 µg/mL (≈ 0.137 µM)
Cl.N=C(N)NC[C@H]1CC[C@H](C(=O)Oc2ccc(-c3ccc(C(=O)OCc4ccc(Cl)cc4)cc3)cc2)CC1 [Example 15, trans4-guanidinomethyl cyclohexane carboxylic acid [4-[4-(4-chlorobenzyloxy carbonyl)phenyl]phenylester].hydrochloride] | 0.39 | 0.78 | 0.39 | 0.10 | 0.20 | 0.10 | > 25 | >25 | – | – | – | – | – | – | – | MBC [1]: 1.56 µg/mL; MIC [1]: 0.39 µg/mL; MBC [2]: 1.56 µg/mL; MIC [2]: 0.39 µg/mL; MBC [3]: 0.10 µg/mL; MIC [3]: 0.05 µg/mL; MBC [4]: 0.39 µg/mL; MIC [4]: 0.39 µg/mL; MBC [5]: 0.39 µg/mL; MIC [5]: 0.20 µg/mL; MBC [6]: 0.78 µg/mL; MIC [6]: 0.20 µg/mL
Cl.N=C(N)NC[C@H]1CC[C@H](C(=O)Oc2ccc(-c3ccc(Cl)cc3)cc2)CC1 [Example 8, trans-4-guanidinomethyl cyclohexane carboxylic acid [4-(4-chlorophenyl)phenylester].hydrochloride] | 0.39 | 0.78 | 0.39 | 0.10 | 0.39 | 0.10 | – | >25 | 0.78 | 6.25 | 1.56 | 1.56 | 0.39 | 0.39 | 0.20 | –

Further lines, with some results ahead:

MIC [7, 21] [µg/mL] | MIC [8, 22] [µg/mL] | MIC [9, 23] [µg/mL] | MIC [10, 24] [µg/mL] | MIC [11, 25] [µg/mL] | MIC [12, 26] [µg/mL] | MIC against bacillus subcillus ATCC 6633 [13] [µg/mL] | MIC [14] [µg/mL] | MIC [18] [µg/mL] | MIC [13] [µg/mL] | MIC [19] [µg/mL] | MIC [20] [µg/mL] | MIC [15, 27] [µg/mL] | MIC [16, 28] [µg/mL] | MIC [17, 29] [µg/mL] | SMILES | other results
0.39 | 0.78 | 0.39 | 0.20 | 0.20 | 0.20 | > 25 | >25 | >25 | >25 | >25 | >25 | – | – | – | CC(C)(C)c1ccc(COC(=O)c2ccc(-c3ccc(OC(=O)[C@H]4CC[C@H](CNC(=N)N)CC4)cc3)cc2)cc1.Cl [Example 17, trans-4-guanidinomethyl cyclohexane carboxylic acid [4-[4-(4-t-butylbenzyloxy carbonyl)phenyl]phenylester].hydrochloride] | –
0.78 | 0.39 | 0.39 | 0.10 | 0.39 | 0.20 | > 25 | >25 | 25 | >25 | >25 | >25 | – | – | – | Cl.N=C(N)NC[C@H]1CC[C@H](C(=O)Oc2ccc(-c3ccc(C(=O)OCc4ccc(C(F)(F)F)cc4)cc3)cc2)CC1 [Example 21, trans-4-guanidinomethyl cyclohexane carboxylic acid [4-[4-(4-trifuluoromethyl benzyloxycarbonyl)phenyl]phenylester].hydrochloride] | –
0.78 (≈ 2.16 µM) | 0.78 (≈ 2.16 µM) | 12.5 (≈ 34.6 µM) | 25.0 (≈ 69.2 µM) | 0.78 (≈ 2.16 µM) | 0.78 (≈ 2.16 µM) | – | 0.10 (≈ 0.277 µM) | 0.39 (≈ 1.08 µM) | 0.10 (≈ 0.277 µM) | 12.5 (≈ 34.6 µM) | 0.10 (≈ 0.277 µM) | 0.78 (≈ 2.16 µM) | 1.56 (≈ 4.32 µM) | 0.78 (≈ 2.16 µM) | CC1COc2c(N3CCN(C)CC3)c(F)cc3c(=O)c(C(=O)O)cn1c23 (centres unmarked) [Ophroxacine, ophroxacine, reference compound] | –
0.39 | 0.39 | 0.39 | 0.39 | 3.13 | 0.39 | – | >25 | >25 | >25 | >25 | >25 | 0.20 | 0.39 | 0.20 | Cl.N=C(N)NC[C@H]1CC[C@H](C(=O)Oc2ccc(-c3ccc(C(=O)OCCc4ccc(Cl)cc4)cc3)cc2)CC1 [Example 45, trans-4-guanidinomethyl cyclohexane carboxylic acid[4-[4-[2-(4-chlorophenyl)ethyloxycarbonyl)phenyl]phenylester].hydrochloride] | –
